In patent US7723393B2, “Cycloalkylidene compounds as selective estrogen receptor modulators” (GlaxoSmithKline LLC, priority 2005, dated 2010):

melting point | Structure (SMILES)
131 to 132 °C | CC1(C)CC(=C(c2ccccc2)c2ccc(OCCO)cc2)CC(C)(C)C1 [Example 3, 2-({4-[Phenyl(3,3,5,5-tetramethylcyclohexylidene)methyl]phenyl}oxy)ethanol]
116 to 117 °C | CC1(C)CC(=C(c2ccccc2)c2ccc(OCCOCCO)cc2)CC(C)(C)C1 [Example 4, 2-{[2-({4-[Phenyl(3,3,5,5-tetramethylcyclohexylidene)methyl]phenyl}oxy)ethyl]oxy}ethanol]
100 to 101 °C | CC1(C)CC(=C(c2ccc(F)cc2)c2ccc(OCC#N)cc2)CC(C)(C)C1 [Example 7, ({4-[(4-Fluorophenyl)(3,3,5,5-tetramethylcyclohexylidene)methyl]phenyl}oxy)acetonitrile]
